Measurements reported in ChEMBL document CHEMBL1150100, “Bruceanols G and H cytotoxic quassinoids from Brucea antidysenterica” (1995).

Experiments:
Assay type in all cases: functional
Details in all cases: read-out: ED50 (the source's name)
SK-MEL-5 = test: Cytotoxicity against human SK-MEL-5 cells
COLO 205 = test: Cytotoxicity against human COLO205 cells
KB = test: Cytotoxicity against human KB cells

Q: Which EC50 (SK-MEL-5) does the source give for `COC(=O)[C@@]12OC[C@]34[C@H]([C@@H](O)[C@@H]1O)[C@@]1(C)C(=O)[C@@H](O)C[C@@H](C)[C@@H]1C[C@H]3OC(=O)[C@H](OC(=O)/C=C(\C)C(C)C)[C@@H]24` [BRUCEANOL H] here?
A: 6.37 µM

Q: With `COC(=O)[C@@]12OC[C@]34[C@H]([C@@H](O)[C@@H]1O)[C@@]1(C)[C@H](O)C(=O)C[C@@H](C)[C@@H]1C[C@H]3OC(=O)[C@H](OC(=O)/C=C(\C)C(C)(C)OC(C)=O)[C@@H]24` [BRUCEANOL G] as the molecule, how does the EC50 (COLO 205) read?
A: 440 nM

Q: And the EC50 (SK-MEL-5)?
A: 4.08 µM

Q: And the EC50 (KB)?
A: 550 nM
